Laboratory results reported in patent US4959353A, “Promotion of corneal stroma wound healing with human epidermal growth factor prepared from recombinant DNA” (University of Louisville Foundation, priority 1987, dated 1990).

How the values were obtained:
[1] = test system: capillary growth in rabbit cornea; assay: Rabbit cornea angiogenesis assay with hEGF EVA pellets; format: in vivo, rabbits; set-up: key to Angiogenic Response: 4+: profuse capillary growth; 3+: extensive capillary growth; 2+: moderate capillary growth; 1+: very little capillary growth; 0: no capillary growth
Description: hEGF was dilated in sterile PBS to concentrations of 500, 100, 20, 4 and 0.8 μg/ml and lyophilized. Ethylene-vinyl acetate (EVA) copolymer beads were mixed with methylene chloride to produce a 10% w/v casting solution. Approximately 0.1 ml of casting solution was added to the lyophilized hEGF and mixed. […]
The pellets were implanted into intrasomal corneal pockets located 1.5 mm from the limbus in the eyes of pigmented adult rabbits. […]

interscapular incision [2] = assay: Tensile strength of incisions treated with a single dose of EGF-saline; format: in vivo, rats; conditions: after 10 days; single dose in saline
Description: Adult male Sprague Dawley rats weighing 230-250 g were anesthetized and a single interscapular incision 5 cm long penetrating the panniculus carnosus was created in the dorsal midline. Equal amounts of hEGF (10 μg) formulated in one of the four formulations were placed in the base of individual incision tracts, and then sutured. At daily intervals, rats were sacrificed by carbon dioxide inhalation and incisions with 3 mm of surrounding nonwounded skin were excised to the underlying muscle. Total amounts of hEGF present in incision areas were calculated by measuring residual ^125 I-hEGF present in samples using a Beckman 4000 gamma scintillation counter, and were expressed as percentages of original hEGF applied to incisions. At each time point, the average amount of hEGF retained in the incision for each formulation was calculated from the values from three rats. From each incision, three test strips approximately 5 mm wide were cut perpendicular to the original incision, one from the middle and two from each end. Measurements of incision strength were conducted using a Unite-O-Matic FM-20 tensiometer instrument. For each formulation, the mean tensile strength was calculated from the mean value of all incision measurements in the group. […]

interscapular incision [3] = assay: Tensile strength of incisions treated with repeated doses of EGF-saline; format: in vivo, rats
Description: Interscapular incisions were created as above on the backs of 22 rats and a perforated catheter was placed in the base of the incision and brought out through a separate stab incision at the base of the neck. Incisions of half the rats were treated three times a day for five days by rapidly injecting 200 μl of PBS containing 50 μg of hEGF, while the control rats received injections of PBS. Seven and 14 days after surgery, rats were sacrificed by carbon dioxide asphixiation, incisions and surrounding tissue were removed as above. Three strips were taken from tensile strength measurement from each incision.
An interscapular incision was made on the back of each rat and a perforated catheter was placed in the base of the incision and brought out through a separate stab wound and the incision was sutured. Incisions were treated three times a day for five days by injecting 200 μl of saline alone or containing 50 μg EGF. After seven and fourteen days, rats were sacrificed and triplicate tensile strength measurements were determined for each rat. Values are mean and standard deviation and n is the number of tensile strength measurements.

open wounds = conditions: topical application; mice; cited from earlier work
blister wounds = conditions: mEGF in saline solution once daily until healed; human subjects; cited from earlier work

Row | Substance | Angiogenic Response ([1]; 0.04 mg/pellet (so in the source), EVA pellet) | Angiogenic Response ([1]; 0.18 mg/pellet (so in the source), EVA pellet) | Angiogenic Response ([1]; 1.1 mg/pellet (so in the source), EVA pellet) | Angiogenic Response ([1]; 6.2 mg/pellet (so in the source), EVA pellet) | Angiogenic Response ([1]; 25 mg/pellet (so in the source), EVA pellet in rabbit corneal pocket) | angiogenesis in rabbit cornea assay ([1]; sustained release from EVA pellets) | tensile strength vs PBS-treated or simply sutured incisions (interscapular incision [2]) | average increase in strength over saline treated incisions (interscapular incision [3]; 7 days after surgery) [%] | microscopic appearance of incision tract (interscapular incision [3]; 7 days after surgery) | tensile strength vs saline-treated incisions (interscapular incision [3]; fourteen days after surgery) | healing of open wounds (open wounds) | acceleration in the growth of the epidermal layer (blister wounds)
1 | hEGF: human epidermal growth factor polypeptide expressed from plasmid pYαEGF-23 in yeast strain AB103 and purified | 1+ | 1+ | 2+ | 3+ | 4+ | induced angiogenesis | not significantly stronger | 35 | very narrow with closely opposed edges | not different |  | 
2 | mEGF: epidermal growth factor obtained from mouse salivary glands (NSYPGCPSSYDGYCLNGGVCMHIESLDSYTCNCVIGYSGDRCQTRDLRWWELR; not fully specified; Epidermal growth factor; UniProt P01132 977-1029, looked up) |  |  |  |  |  |  |  |  |  |  | promote healing in various degrees | No acceleration
